Measurements taken from patent US20230085307A1, “PYRIDAZINONE COMPOUND AND HERBICIDE” (NISSAN CHEMICAL CORPORATION, priority 2019, published 2023).

Columns and labels:
[1] = system: lambsquarters; assay: Test Example 4: herbicidal effect by soil treatment (Table 19, symbol O); format: in vivo, lambsquarters (Chenopodium album); conditions: amount of applied herbicide 320 g/ha
How it was run: (§1)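 Applied as a water-diluted emulsion, the compound was sprayed onto soil covering newly sown seeds. Evaluation came three weeks after application, in a greenhouse held at 25° C. to 30° C.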

[2] = system: chickweed; assay: Test Example 5: herbicidal effect by foliage application, plastic box (Table 20, symbol P); format: in vivo, common chickweed (Stellaria media); conditions: foliage application, 320 g/ha, evaluated three weeks after application
How it was run: (§2)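 Sow seeds spot-wise in sterilized diluvial soil; cover with ~1.5 cm soil. Grow 14 days in greenhouse, 25° C. to 30° C. Spray foliage with emulsion diluted to predetermined amount. Rate effect after 3 weeks.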

[3] = system: Italian ryegrass; assay: Test Example 4: herbicidal effect by soil treatment (Table 19, symbol K); format: in vivo, Italian ryegrass (Lolium multiflorum); conditions: amount of applied herbicide 320 g/ha
How it was run: as §1

[4] = system: rice flat sedge; assay: Test Example 3: herbicidal effect by foliage application, Wagner pot (Table 18, symbol E); format: in vivo, rice flat sedge (Cyperus iria); conditions: amount of applied herbicide 320 g/ha
How it was run: (§3)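 Plants were sown in alluvial soil held under 0.1–0.5 cm standing water and grown 14 days in a greenhouse at 25–30 °C. An emulsifiable formulation, water-diluted to the set dose, was then sprayed onto the foliage, and effects were scored three weeks later using previously defined criteria.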

[5] = system: redroot pigweed; assay: Test Example 4: herbicidal effect by soil treatment (Table 19, symbol N); format: in vivo, redroot pigweed (Amaranthus retroflexus); conditions: amount of applied herbicide 320 g/ha
How it was run: as §1

[6] = system: velvetleaf; assay: Test Example 5: herbicidal effect by foliage application, plastic box (Table 20, symbol M); format: in vivo, velvetleaf (Abutilon theophrasti); conditions: foliage application, 320 g/ha, evaluated three weeks after application
How it was run: as §2

[7] = system: velvetleaf; assay: Test Example 4: herbicidal effect by soil treatment (Table 19, symbol M); format: in vivo, velvetleaf (Abutilon theophrasti); conditions: amount of applied herbicide 320 g/ha
How it was run: as §1

[8] = system: late watergrass; assay: Test Example 1: herbicidal activity, application before weed generation under submerged conditions (Table 16, symbol A); format: in vivo, late watergrass (Echinochloa oryzicola); conditions: 320 g/ha applied herbicide
How it was run: (§4)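 Submerged Wagner pots (alluvial soil, 4 cm water) sown with weed seeds and planted with 2.5-leaf rice seedlings; emulsifiable concentrate diluted in water applied to water surface on sowing day. Held in greenhouse at 25-30 °C; injury scored 0-5 by herbicidal rate after three weeks.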

[9] = system: persian speedwell; assay: Test Example 4: herbicidal effect by soil treatment (Table 19, symbol R); format: in vivo, Persian speedwell (Veronica persica); conditions: amount of applied herbicide 320 g/ha
How it was run: as §1

[10] = system: green foxtail; assay: Test Example 5: herbicidal effect by foliage application, plastic box (Table 20, symbol G); format: in vivo, green foxtail (Setaria viridis); conditions: foliage application, 320 g/ha, evaluated three weeks after application
How it was run: as §2

[11] = system: Italian ryegrass; assay: Test Example 5: herbicidal effect by foliage application, plastic box (Table 20, symbol K); format: in vivo, Italian ryegrass (Lolium multiflorum); conditions: foliage application, 320 g/ha, evaluated three weeks after application
How it was run: as §2

[12] = system: windgrass; assay: Test Example 4: herbicidal effect by soil treatment (Table 19, symbol L); format: in vivo, windgrass (Apera spica-venti); conditions: amount of applied herbicide 320 g/ha
How it was run: as §1

[13] = system: southern crabgrass; assay: Test Example 4: herbicidal effect by soil treatment (Table 19, symbol F); format: in vivo, southern crabgrass (Digitaria ciliaris); conditions: amount of applied herbicide 320 g/ha
How it was run: as §1

[14] = system: oval-leafed pondweed; assay: Test Example 1: herbicidal activity, application before weed generation under submerged conditions (Table 16, symbol C); format: in vivo, oval-leafed pondweed (Monochoria vaginalis); conditions: 320 g/ha applied herbicide
How it was run: as §4

[15] = system: persian speedwell; assay: Test Example 5: herbicidal effect by foliage application, plastic box (Table 20, symbol R); format: in vivo, Persian speedwell (Veronica persica); conditions: foliage application, 320 g/ha, evaluated three weeks after application
How it was run: as §2

[16] = system: barnyard grass; assay: Test Example 5: herbicidal effect by foliage application, plastic box (Table 20, symbol H); format: in vivo, barnyard grass (Echinochloa crus-galli); conditions: foliage application, 320 g/ha, evaluated three weeks after application
How it was run: as §2

[17] = system: Japanese bulrush; assay: Test Example 1: herbicidal activity, application before weed generation under submerged conditions (Table 16, symbol B); format: in vivo, Japanese bulrush (Schoenoplectus juncoides); conditions: 320 g/ha applied herbicide
How it was run: as §4

[18] = system: chickweed; assay: Test Example 4: herbicidal effect by soil treatment (Table 19, symbol P); format: in vivo, common chickweed (Stellaria media); conditions: amount of applied herbicide 320 g/ha
How it was run: as §1

[19] = system: barnyard grass; assay: Test Example 3: herbicidal effect by foliage application, Wagner pot (Table 18, symbol H); format: in vivo, barnyard grass (Echinochloa crus-galli); conditions: amount of applied herbicide 320 g/ha
How it was run: as §3

[20] = system: green foxtail; assay: Test Example 4: herbicidal effect by soil treatment (Table 19, symbol G); format: in vivo, green foxtail (Setaria viridis); conditions: amount of applied herbicide 320 g/ha
How it was run: as §1

[21] = system: wild oat; assay: Test Example 5: herbicidal effect by foliage application, plastic box (Table 20, symbol I); format: in vivo, wild oat (Avena fatua); conditions: foliage application, 320 g/ha, evaluated three weeks after application
How it was run: as §2

[22] = system: lambsquarters; assay: Test Example 5: herbicidal effect by foliage application, plastic box (Table 20, symbol O); format: in vivo, lambsquarters (Chenopodium album); conditions: foliage application, 320 g/ha, evaluated three weeks after application
How it was run: as §2

[23] = system: wild oat; assay: Test Example 4: herbicidal effect by soil treatment (Table 19, symbol I); format: in vivo, wild oat (Avena fatua); conditions: amount of applied herbicide 320 g/ha
How it was run: as §1

[24] = system: blackgrass; assay: Test Example 5: herbicidal effect by foliage application, plastic box (Table 20, symbol J); format: in vivo, blackgrass (Alopecurus myosuroides); conditions: foliage application, 320 g/ha, evaluated three weeks after application
How it was run: as §2

[25] = system: windgrass; assay: Test Example 5: herbicidal effect by foliage application, plastic box (Table 20, symbol L); format: in vivo, windgrass (Apera spica-venti); conditions: foliage application, 320 g/ha, evaluated three weeks after application
How it was run: as §2

[26] = system: southern crabgrass; assay: Test Example 5: herbicidal effect by foliage application, plastic box (Table 20, symbol F); format: in vivo, southern crabgrass (Digitaria ciliaris); conditions: foliage application, 320 g/ha, evaluated three weeks after application
How it was run: as §2

[27] = system: redroot pigweed; assay: Test Example 5: herbicidal effect by foliage application, plastic box (Table 20, symbol N); format: in vivo, redroot pigweed (Amaranthus retroflexus); conditions: foliage application, 320 g/ha, evaluated three weeks after application
How it was run: as §2

[28] = system: Chinese sprangletop; assay: Test Example 3: herbicidal effect by foliage application, Wagner pot (Table 18, symbol D); format: in vivo, chinese sprangletop (Leptochloa chinensis); conditions: amount of applied herbicide 320 g/ha
How it was run: as §3

[29] = system: barnyard grass; assay: Test Example 4: herbicidal effect by soil treatment (Table 19, symbol H); format: in vivo, barnyard grass (Echinochloa crus-galli); conditions: amount of applied herbicide 320 g/ha
How it was run: as §1

CCCC(=O)Oc1c(C)nn(C)c(=O)c1-c1c(-c2cccc(OC(F)(F)F)c2)sc2ccc(F)cc12 [2-237]
herbicidal effect on O: lambsquarters [1]: 0 (Herbicidal rate of 5% or less (almost no effect)) | herbicidal effect on P: chickweed (criteria 0-5) [2]: 5 (Herbicidal rate of 90% or more (almost completely withered)) | herbicidal effect on K: Italian ryegrass [3]: 0 (Herbicidal rate of 5% or less (almost no effect)) | herbicidal effect on E: rice flat sedge [4]: 5 (Herbicidal rate of 90% or more (almost completely withered)) | herbicidal effect on N: redroot pigweed [5]: 0 (Herbicidal rate of 5% or less (almost no effect)) | herbicidal effect on M: velvetleaf (criteria 0-5) [6]: 3 (Herbicidal rate of 40% or more and less than 70%) | herbicidal effect on M: velvetleaf [7]: 0 (Herbicidal rate of 5% or less (almost no effect)) | Herbicidal effect on A: late watergrass (grade 0-5) [8]: 3 (Herbicidal rate of 40% or more and less than 70%) | herbicidal effect on R: persian speedwell [9]: 0 (Herbicidal rate of 5% or less (almost no effect)) | herbicidal effect on G: green foxtail (criteria 0-5) [10]: 0 (Herbicidal rate of 5% or less (almost no effect)) | herbicidal effect on K: Italian ryegrass (criteria 0-5) [11]: 0 (Herbicidal rate of 5% or less (almost no effect)) | herbicidal effect on L: windgrass [12]: 0 (Herbicidal rate of 5% or less (almost no effect)) | herbicidal effect on F: southern crabgrass [13]: 0 (Herbicidal rate of 5% or less (almost no effect)) | Herbicidal effect on C: oval-leafed pondweed (grade 0-5) [14]: 0 (Herbicidal rate of 5% or less (almost no effect)) | herbicidal effect on R: persian speedwell (criteria 0-5) [15]: 3 (Herbicidal rate of 40% or more and less than 70%) | herbicidal effect on H: barnyard grass (criteria 0-5) [16]: 0 (Herbicidal rate of 5% or less (almost no effect)) | Herbicidal effect on B: Japanese bulrush (grade 0-5) [17]: 0 (Herbicidal rate of 5% or less (almost no effect)) | herbicidal effect on P: chickweed [18]: 5 (Herbicidal rate of 90% or more (almost completely withered)) | herbicidal effect on H: barnyard grass [19]: 3 (Herbicidal rate of 40% or more and less than 70%) | herbicidal effect on G: green foxtail [20]: 0 (Herbicidal rate of 5% or less (almost no effect)) | herbicidal effect on I: wild oat (criteria 0-5) [21]: 0 (Herbicidal rate of 5% or less (almost no effect)) | herbicidal effect on O: lambsquarters (criteria 0-5) [22]: 2 (Herbicidal rate of 20% or more and less than 40%) | herbicidal effect on I: wild oat [23]: 0 (Herbicidal rate of 5% or less (almost no effect)) | herbicidal effect on J: blackgrass (criteria 0-5) [24]: 0 (Herbicidal rate of 5% or less (almost no effect)) | herbicidal effect on L: windgrass (criteria 0-5) [25]: 0 (Herbicidal rate of 5% or less (almost no effect)) | herbicidal effect on F: southern crabgrass (criteria 0-5) [26]: 0 (Herbicidal rate of 5% or less (almost no effect)) | herbicidal effect on N: redroot pigweed (criteria 0-5) [27]: 5 (Herbicidal rate of 90% or more (almost completely withered)) | herbicidal effect on D: Chinese sprangletop [28]: 4 (Herbicidal rate of 70% or more and less than 90%) | herbicidal effect on H: barnyard grass [29]: 0 (Herbicidal rate of 5% or less (almost no effect))
